Assay results published in paper PMC7165133, “Functional expression and characterization of cinnamic acid 4-hydroxylase from the hornwort Anthoceros agrestis in Physcomitrella patens” (Plant Cell Reports, 2020).

Tests used:
[1] = tested on: T1, Physcomitrella patens NADPH:cytochrome P450 reductase(s) (CPR or POR), in Pp_WT; assay: HPLC of 4-coumaric acid formed (coupled C4H reaction), Michaelis-Menten fit; assay type: biochemical, Physcomitrium patens; conditions: 400 µM cinnamic acid, pH 7.0, 25 °C, 5 min; crude extract of untransformed moss; NADPH oxidised by CPR, read-out via C4H; read-out: apparent Km
T1 construct: native reductase(s), four putative CPR genes; crude protein extract of untransformed moss with its own C4Hs; with trans-cinnamate 4-monooxygenase; trans-cinnamate 4-monooxygenase

[2] = tested on: T2, Physcomitrella patens NADPH:cytochrome P450 reductase(s) (CPR or POR), in Pp_AaC4H; assay: as above; assay type: biochemical, Physcomitrium patens; conditions: 400 µM cinnamic acid, pH 7.0, 25 °C, 5 min; crude extract; NADPH oxidised by CPR, read-out via C4H; read-out: apparent Km
T2 construct: native reductase(s) of the host moss, four putative CPR genes; crude protein extract of moss expressing C-terminally 6xHis-tagged AaC4H; with trans-cinnamate 4-monooxygenase (Anthoceros agrestis)

Pp_WT (PpC4Hs) = tested on: T3, Pp_WT (PpC4Hs); assay: HPLC of 4-coumaric acid formed, Michaelis-Menten fit; assay type: biochemical, Physcomitrium patens; conditions: 5 mM NADPH, pH 7.0, 25 °C, 5 min; crude extract of untransformed moss; read-out: apparent Km
T3 construct: gene PpC4H_1; native, crude protein extract of untransformed moss; six putative C4H genes, only two named in the main text; with NADPH--cytochrome P450 reductase

[3] = substrate: O=C(O)/C=C/c1ccccc1; assay: cells, lysate or membranes; conditions: 5 mM NADPH, pH 7.0, 25 °C, 5 min, crude extract with endogenous PpC4H background

NC(=O)C1=CN([C@@H]2O[C@H](COP(=O)(O)OP(=O)(O)OC[C@H]3O[C@@H](n4cnc5c(N)ncnc54)[C@H](OP(=O)(O)O)[C@@H]3O)[C@@H](O)[C@H]2O)C=CC1 [NADPH]
Km [1]: 92.3 ± 10.8 µM
Km [2]: 88 ± 19.5 µM

O=C(O)/C=C/c1ccccc1 [t-cinnamic acid]
Km (Pp_WT (PpC4Hs)): 25.1 ± 8.9 µM

B1: Pp_AaC4H (AaC4H, CYP73A260) (Anthoceros agrestis) (protein)
chain: MASGETTLGSTNTMFLDALSILEALLATIAVLWLVKQVTSSRLKPPPGPLALPILGNWLQVGDDLNHRNLSDLAKKYGDIFLLRMGQRNVVVVSSPELAKEVLLTQGVEFGSRTRNVVFDIFTGKGQDMVFTVYGEHWRRMRRIMTVPFFTSKVVQQSRVAWEDETDRVIADLKTNPKYAAASTTGVVLRQRLQLLMYNTMYRLMFDRRFESEDDPLFVQLKALNGERSRLAQSFEYNYGDFIPVLRPLLRNYLKICQDIKDRRLALFKNHFLDERKKLLDTKRSQTAASTGKCAIDHILDAQKNGKINEDNVLYIVENINVAAIETTLWSMEWGLAELVNNPDIQQKVREELDHVLGKGTPLTEPDIQAGKLSYLAAVVKETLRLHMAIPLLVPHMNLHQARLGGYDIPAESKVLVNAWYLANNPALWKDPETFRPERFLEGDKGAEPNGTDFRFLPFGVGRRSCPGIILALPLLNLVLGRLVQSFLLTCPPGVEKLDLSEKGGQFSLHIAAHSNIVVKPRPDM
Km [3]: 17.3 ± 5.0 µM
